Here are results for two substances from patent US8748368B2, “Methods for preserving organs and tissues” (DYAX Corp., priority 2002, dated 2014).

Positions of bridges follow the written chain, without caps; N, C: chain ends. No end group written: not given here.

What all share (assay): Affinity (Ki,app) for protease
Type in all cases: biochemical

The target in one assay is T1, human plasmin (Homo sapiens, UniProt P00747).
T1 construct: human plasmin

Assay [1] concerns the target T2, human neutrophil elastase (Homo sapiens, UniProt P08246).
T2 sequence (P08246 30-267): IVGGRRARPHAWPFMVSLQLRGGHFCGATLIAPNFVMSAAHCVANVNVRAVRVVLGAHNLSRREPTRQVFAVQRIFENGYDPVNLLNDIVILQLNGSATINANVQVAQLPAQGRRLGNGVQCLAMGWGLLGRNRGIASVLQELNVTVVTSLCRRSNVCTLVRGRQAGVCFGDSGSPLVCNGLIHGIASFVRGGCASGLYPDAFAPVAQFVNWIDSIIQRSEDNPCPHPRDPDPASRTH

For another assay, the target named is T3, human urine kallikrein (Homo sapiens, UniProt P06870).
T3 construct: from tissue; host or cells: urine (from the name only)
T3 sequence (P06870 25-262): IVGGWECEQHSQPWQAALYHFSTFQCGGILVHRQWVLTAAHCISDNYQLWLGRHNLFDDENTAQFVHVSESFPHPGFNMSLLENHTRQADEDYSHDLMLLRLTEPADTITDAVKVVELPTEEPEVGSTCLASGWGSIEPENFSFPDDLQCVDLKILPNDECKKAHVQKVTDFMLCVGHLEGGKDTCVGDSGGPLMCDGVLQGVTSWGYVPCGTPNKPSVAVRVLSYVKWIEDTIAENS

Assay [2] has as its target T4, porcine pancreatic kallikrein (Sus scrofa, UniProt P00752).
T4 construct: from tissue; host or cells: pancreas (from the name only)

The next assay has as its target T5, human C1r, activated (Homo sapiens, UniProt P00736).
T5 sequence (P00736 18-463 limits assumed): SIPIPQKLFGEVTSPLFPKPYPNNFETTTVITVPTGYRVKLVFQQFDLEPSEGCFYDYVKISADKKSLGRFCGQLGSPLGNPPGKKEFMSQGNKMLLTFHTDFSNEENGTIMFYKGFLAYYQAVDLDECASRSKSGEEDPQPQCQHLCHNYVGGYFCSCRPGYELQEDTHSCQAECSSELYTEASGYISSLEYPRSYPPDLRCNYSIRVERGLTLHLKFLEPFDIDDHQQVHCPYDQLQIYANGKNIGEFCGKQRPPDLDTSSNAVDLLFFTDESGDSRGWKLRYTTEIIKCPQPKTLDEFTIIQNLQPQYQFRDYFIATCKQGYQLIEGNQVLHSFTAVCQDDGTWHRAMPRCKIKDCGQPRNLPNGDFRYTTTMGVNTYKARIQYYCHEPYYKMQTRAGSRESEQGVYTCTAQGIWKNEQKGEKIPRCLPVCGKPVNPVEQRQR
T5 sequence (P00736 464-705 limits assumed): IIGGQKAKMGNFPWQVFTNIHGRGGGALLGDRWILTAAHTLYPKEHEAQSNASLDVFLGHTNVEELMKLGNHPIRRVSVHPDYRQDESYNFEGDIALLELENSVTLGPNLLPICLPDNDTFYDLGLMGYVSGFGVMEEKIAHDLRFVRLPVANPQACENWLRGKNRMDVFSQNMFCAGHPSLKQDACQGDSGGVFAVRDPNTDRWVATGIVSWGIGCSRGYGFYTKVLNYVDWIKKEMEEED

In the next assay the target is T6, human plasma factor XIa (Homo sapiens, UniProt P03951).
T6 construct: human plasma factor XIa; from tissue; host or cells: plasma (from the name only)
T6 sequence (P03951 19-387 limits assumed): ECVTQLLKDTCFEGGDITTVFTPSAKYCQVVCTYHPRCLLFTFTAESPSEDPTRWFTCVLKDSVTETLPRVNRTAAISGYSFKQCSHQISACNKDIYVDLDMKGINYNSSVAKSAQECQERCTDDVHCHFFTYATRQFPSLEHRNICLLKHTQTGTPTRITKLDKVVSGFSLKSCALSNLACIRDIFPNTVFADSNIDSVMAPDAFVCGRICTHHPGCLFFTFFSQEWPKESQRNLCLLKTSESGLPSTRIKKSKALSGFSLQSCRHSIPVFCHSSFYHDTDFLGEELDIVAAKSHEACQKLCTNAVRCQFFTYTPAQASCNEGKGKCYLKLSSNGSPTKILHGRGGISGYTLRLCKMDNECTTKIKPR
T6 sequence (P03951 388-625 limits assumed): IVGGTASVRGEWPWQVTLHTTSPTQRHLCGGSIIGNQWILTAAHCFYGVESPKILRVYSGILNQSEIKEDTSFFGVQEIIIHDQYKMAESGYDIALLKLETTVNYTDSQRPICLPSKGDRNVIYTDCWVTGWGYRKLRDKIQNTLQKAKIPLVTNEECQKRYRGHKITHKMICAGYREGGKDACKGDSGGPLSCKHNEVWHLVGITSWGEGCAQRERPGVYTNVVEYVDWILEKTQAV

The next assay addresses T7, human plasma thrombin (Homo sapiens, UniProt P00734).
T7 construct: human plasma thrombin; from tissue; host or cells: plasma (from the name only)

A further assay concerns the target T8, human C1s, activated (Homo sapiens, UniProt P09871).
T8 sequence (P09871 16-437 limits assumed): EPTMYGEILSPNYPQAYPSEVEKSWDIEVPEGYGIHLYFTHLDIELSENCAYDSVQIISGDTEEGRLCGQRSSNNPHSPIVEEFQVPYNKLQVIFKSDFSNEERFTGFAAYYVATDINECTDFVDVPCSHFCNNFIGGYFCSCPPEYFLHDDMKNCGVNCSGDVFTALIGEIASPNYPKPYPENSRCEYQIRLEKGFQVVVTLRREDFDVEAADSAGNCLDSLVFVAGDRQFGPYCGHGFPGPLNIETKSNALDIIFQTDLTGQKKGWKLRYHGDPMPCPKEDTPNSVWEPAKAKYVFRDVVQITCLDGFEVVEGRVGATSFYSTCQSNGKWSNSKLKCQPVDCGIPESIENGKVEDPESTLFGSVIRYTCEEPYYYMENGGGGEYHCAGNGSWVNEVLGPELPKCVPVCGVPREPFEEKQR
T8 sequence (P09871 438-688 limits assumed): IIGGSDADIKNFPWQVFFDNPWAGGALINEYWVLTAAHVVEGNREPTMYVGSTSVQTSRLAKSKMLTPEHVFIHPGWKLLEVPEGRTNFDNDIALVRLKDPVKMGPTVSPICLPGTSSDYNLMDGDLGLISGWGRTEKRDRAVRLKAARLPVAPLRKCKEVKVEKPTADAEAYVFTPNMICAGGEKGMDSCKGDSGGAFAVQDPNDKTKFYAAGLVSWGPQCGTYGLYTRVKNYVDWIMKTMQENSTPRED

The target in the next assay is human plasma factor XIIa.
human plasma factor XIIa, sequence (P00748 373-615 limits assumed): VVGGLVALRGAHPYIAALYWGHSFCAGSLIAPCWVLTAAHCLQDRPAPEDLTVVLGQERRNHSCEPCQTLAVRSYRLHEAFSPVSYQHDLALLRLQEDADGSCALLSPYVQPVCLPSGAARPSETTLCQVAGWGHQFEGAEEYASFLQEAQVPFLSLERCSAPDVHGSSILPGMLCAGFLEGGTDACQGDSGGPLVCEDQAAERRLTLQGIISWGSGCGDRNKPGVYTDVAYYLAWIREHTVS

T1 sequence (P00747 97-580 limits assumed): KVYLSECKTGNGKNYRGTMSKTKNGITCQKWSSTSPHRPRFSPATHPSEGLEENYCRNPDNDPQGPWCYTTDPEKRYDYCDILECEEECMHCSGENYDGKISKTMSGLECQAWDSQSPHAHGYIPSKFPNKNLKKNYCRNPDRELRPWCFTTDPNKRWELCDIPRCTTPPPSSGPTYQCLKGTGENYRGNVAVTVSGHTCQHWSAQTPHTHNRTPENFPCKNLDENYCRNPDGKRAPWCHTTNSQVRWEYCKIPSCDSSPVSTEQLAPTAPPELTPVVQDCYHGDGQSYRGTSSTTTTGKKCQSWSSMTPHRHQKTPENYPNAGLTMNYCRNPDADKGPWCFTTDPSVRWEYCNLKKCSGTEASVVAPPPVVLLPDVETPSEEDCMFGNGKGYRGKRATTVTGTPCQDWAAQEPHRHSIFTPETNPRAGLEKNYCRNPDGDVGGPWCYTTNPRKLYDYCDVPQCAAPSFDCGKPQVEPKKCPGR
T1 sequence (P00747 581-810 limits assumed): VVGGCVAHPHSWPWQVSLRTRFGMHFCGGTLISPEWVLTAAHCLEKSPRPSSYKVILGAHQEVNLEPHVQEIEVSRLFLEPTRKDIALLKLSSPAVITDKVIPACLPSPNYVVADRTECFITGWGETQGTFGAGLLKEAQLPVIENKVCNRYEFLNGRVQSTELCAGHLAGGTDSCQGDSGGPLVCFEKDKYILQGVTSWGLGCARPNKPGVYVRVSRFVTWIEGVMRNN
T4 sequence (P00752 8-246): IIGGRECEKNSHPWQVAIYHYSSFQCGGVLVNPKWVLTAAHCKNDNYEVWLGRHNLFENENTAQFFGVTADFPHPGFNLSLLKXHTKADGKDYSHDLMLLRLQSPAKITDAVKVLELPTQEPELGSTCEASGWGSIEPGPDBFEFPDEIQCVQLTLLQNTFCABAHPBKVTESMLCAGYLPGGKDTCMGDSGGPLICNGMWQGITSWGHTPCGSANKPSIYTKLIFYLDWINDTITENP

For the substance “EAMHSFCAFKADDGPCRAAHPRWFFNIFTRQCEEFIYGGCEGNQNRFESLEECKKMCTRD (disulfide 7-57, 16-40, 32-53) [PEP-1]”, the Ki at human plasmin was 0.14 µM; in [1] it was over 20 µM; at human urine kallikrein it was over 100 µM; in assay [2], 27 µM; at human C1r, activated, over 200 µM; on human plasma factor XIa it was 0.01 µM. Also, the Ki is over 20 µM on human plasma thrombin and over 20 µM at human C1s, activated.

Consider aprotinin [reference compound], for which the Ki at human plasma factor XIIa is over 100 µM; on human plasma thrombin, over 100 µM; at human C1s, activated, over 100 µM.
